# In publication PMC11879040, “Advancing systemic toxicity risk assessment: Evaluation of a NAM-based toolbox approach” (Toxicological Sciences, 2024):
# Where two headings read alike, the source gives them in different places.
# Legend:
# [1] = cited from earlier work
# Tubulin (r) = assay: IPP Tubulin binding; set-up: species or system rat; conditions: 100 uM; ligand/control Colchicine
# [2] = test system: Potassium Voltage-Gated Channel Kv non-selective, KCNQ1 (r); assay: IPP KCNQ1 binding (antagonist radioligand); set-up: species or system rat
# HepG2 cells [3] = assay: High-throughput transcriptomics (HTTr, TempO-Seq), HepG2, 24 h; type: cell-based, human; conditions: HepG2; for pod_httr_bifrost PoD: HTTr BIFROST PoD; for podl_path_minbmd PoD: HTTr minimum pathway BMD(L)
# Protocol: (§1) HepG2, HepaRG, and MCF7 cells were treated with each compound for 24 h across a dose range of 7 concentrations and lysed using TempO-Seq lysis buffer (BioSpyder Technologies, proprietary kit, see [Middleton et al. 2022] for method details). Sequencing was performed using TempO-Seq (BioClavis) version 2 of the human whole transcriptome panel and analyzed as described previously in Middleton et al.
# [4] = per chemical see Peff Reference, cited from earlier work
# HepG2 cells [5] = assay: Cell stress panel (CSP), 24 h, 8 concentrations, BIFROST global PoD; type: cell-based; conditions: HepG2; cell stress panel PoD
# Protocol: Compounds were tested using the previously developed cell stress panel ([Hatherell et al. 2020]) and the expanded biomarker panel outlined in Middleton et al. HepG2 cells were treated with all compounds for 24 h across 8 concentrations prior to biomarker analysis. The same plate layout and number of replicates (3 biological and 2 technical) were used as previously for each assay within the panel.
# HepaRG cells = assay: High-throughput transcriptomics (HTTr, TempO-Seq), HepaRG, 24 h; type: cell-based, human; conditions: for pod_httr_bifrost PoD / podl_path_minbmd PoD: HepaRG; for pod_httr_bifrost PoD: HTTr BIFROST PoD; for podl_path_minbmd PoD: HTTr minimum pathway BMD(L)
# Protocol: as §1
# [6] = Assignment of risk classifications to benchmark chemical-exposure scenarios; conditions: from table S1
# [7] = skin penetration (PBK input)
# [8] = test system: Glutamate receptor ionotropic NMDA 1 non-selective, GRIN1 (r); conditions: IPP screening at 100 uM; control CGS 19755
# [9] = target: Voltage-dependent L-type Ca2+ channel (dihydropyridine site), CACNA1C (r) (Rattus norvegicus, UniProt P22002); type: binding
# [10] = cited from earlier work; remark: listed apart in the source
# [11] = test system: Thyroid hormone receptor alpha, THRA (h); assay: IPP THRA coactivator recruitment (agonist); type: biochemical, human; conditions: 100 uM; agonist; T3; * denotes assay interference (2-Amino-6-chloro-4-nitrophenol, HC Red 3)
# [12] = test system: Sodium channel protein type 5 subunit alpha (site 2), SCN5A (r); type: binding, rat
# [13] = test system: Gamma-aminobutyric acid receptor subunit alpha-1 BZD site, GABRA1A (r); type: binding, rat; conditions: IPP screening at 100 uM; control diazepam
# MCF7 cells = assay: High-throughput transcriptomics (HTTr, TempO-Seq), MCF7, 24 h; type: cell-based, human; conditions: MCF-7; for pod_httr_bifrost PoD: HTTr BIFROST PoD; for podl_path_minbmd PoD: HTTr minimum pathway BMD(L)
# Protocol: as §1
# monkey = conditions: monkey; 52 weeks; ref ToxRefDB/Paul-Friedman et al. (2020)/regulatory opinions; cited from earlier work
# [14] = target: Potassium voltage-gated channel subfamily H member 2 hERG, KCNH2 (h) (Homo sapiens, UniProt Q12809); conditions: human
# [15] = human
# [16] = PBK model plasma Cmax estimate (Gastroplus 9.8; levels L1, L2, L3); set-up: species or system human; conditions: therapeutic uses
# [17] = target: T1, Adenosine receptor A2a, ADORA2A (h) (Homo sapiens, UniProt P29274); assay: IPP ADORA2A binding (agonist radioligand); conditions: IPP screening at 100 uM; control NECA
# T1 construct: purchased Eurofins Cerep (SafetyScreen44-based IPP panel)
# [18] = target: vitamin K epoxide reductase enzyme (VKORC1); conditions: ref Bevans et al. 2013, cited from earlier work
# [19] = PBK level L2, optimised based on [21] (glutaraldehyde), [23] (HCRed3), [28] (ibuprofen)
# [20] = PBK level L3, optimised based on [28]
# [21] = IV 200 mg slow IV (3min), 8 healthy male, validation, ref Martin et al. 1990
# [22] = IV 400 mg slow IV (3min), 8 healthy male, validation, ref Martin et al. 1990
# [23] = IV 800 mg infusion over five to seven minutes, 12 healthy, calibration, ref Pavliv et al. 2011
# [24] = Oral 400 mg tablet, fasted, 18 healthy elderly, validation, ref Albert et al. 1984
# [25] = Oral 500 mg ibuprofen lysine tablet (equivalent to 292.6 mg ibuprofen free acid), fasted, 8 healthy male, validation, ref Martin et al. 1990
# [26] = Oral 800 mg tablet, fasted, 12 healthy, calibration, ref Pavliv et al. 2011
# [27] = Oral 800 mg tablet, fasted, 13 healthy, validation, ref Duxin et al. 2017
# [28] = Oral 800 mg tablet, fasted, 18 healthy elderly, validation, ref Albert et al. 1984
# [29] = Oral 800 mg tablet, fed, 10 healthy, validation, ref Duxin et al. 2017
# [30] = Oral 1200 mg tablet, fasted, 18 healthy elderly, validation, ref Albert et al. 1984
# [31] = human, PO 15 mg, tablet, 8 male, Fasted, calibration, ref Stirling Y, et al. British Journal of Haematology (1982) 51: 37-46
# Sequence of Voltage-dependent L-type Ca2+ channel (dihydropyridine site), CACNA1C (r) (P22002 whole entry): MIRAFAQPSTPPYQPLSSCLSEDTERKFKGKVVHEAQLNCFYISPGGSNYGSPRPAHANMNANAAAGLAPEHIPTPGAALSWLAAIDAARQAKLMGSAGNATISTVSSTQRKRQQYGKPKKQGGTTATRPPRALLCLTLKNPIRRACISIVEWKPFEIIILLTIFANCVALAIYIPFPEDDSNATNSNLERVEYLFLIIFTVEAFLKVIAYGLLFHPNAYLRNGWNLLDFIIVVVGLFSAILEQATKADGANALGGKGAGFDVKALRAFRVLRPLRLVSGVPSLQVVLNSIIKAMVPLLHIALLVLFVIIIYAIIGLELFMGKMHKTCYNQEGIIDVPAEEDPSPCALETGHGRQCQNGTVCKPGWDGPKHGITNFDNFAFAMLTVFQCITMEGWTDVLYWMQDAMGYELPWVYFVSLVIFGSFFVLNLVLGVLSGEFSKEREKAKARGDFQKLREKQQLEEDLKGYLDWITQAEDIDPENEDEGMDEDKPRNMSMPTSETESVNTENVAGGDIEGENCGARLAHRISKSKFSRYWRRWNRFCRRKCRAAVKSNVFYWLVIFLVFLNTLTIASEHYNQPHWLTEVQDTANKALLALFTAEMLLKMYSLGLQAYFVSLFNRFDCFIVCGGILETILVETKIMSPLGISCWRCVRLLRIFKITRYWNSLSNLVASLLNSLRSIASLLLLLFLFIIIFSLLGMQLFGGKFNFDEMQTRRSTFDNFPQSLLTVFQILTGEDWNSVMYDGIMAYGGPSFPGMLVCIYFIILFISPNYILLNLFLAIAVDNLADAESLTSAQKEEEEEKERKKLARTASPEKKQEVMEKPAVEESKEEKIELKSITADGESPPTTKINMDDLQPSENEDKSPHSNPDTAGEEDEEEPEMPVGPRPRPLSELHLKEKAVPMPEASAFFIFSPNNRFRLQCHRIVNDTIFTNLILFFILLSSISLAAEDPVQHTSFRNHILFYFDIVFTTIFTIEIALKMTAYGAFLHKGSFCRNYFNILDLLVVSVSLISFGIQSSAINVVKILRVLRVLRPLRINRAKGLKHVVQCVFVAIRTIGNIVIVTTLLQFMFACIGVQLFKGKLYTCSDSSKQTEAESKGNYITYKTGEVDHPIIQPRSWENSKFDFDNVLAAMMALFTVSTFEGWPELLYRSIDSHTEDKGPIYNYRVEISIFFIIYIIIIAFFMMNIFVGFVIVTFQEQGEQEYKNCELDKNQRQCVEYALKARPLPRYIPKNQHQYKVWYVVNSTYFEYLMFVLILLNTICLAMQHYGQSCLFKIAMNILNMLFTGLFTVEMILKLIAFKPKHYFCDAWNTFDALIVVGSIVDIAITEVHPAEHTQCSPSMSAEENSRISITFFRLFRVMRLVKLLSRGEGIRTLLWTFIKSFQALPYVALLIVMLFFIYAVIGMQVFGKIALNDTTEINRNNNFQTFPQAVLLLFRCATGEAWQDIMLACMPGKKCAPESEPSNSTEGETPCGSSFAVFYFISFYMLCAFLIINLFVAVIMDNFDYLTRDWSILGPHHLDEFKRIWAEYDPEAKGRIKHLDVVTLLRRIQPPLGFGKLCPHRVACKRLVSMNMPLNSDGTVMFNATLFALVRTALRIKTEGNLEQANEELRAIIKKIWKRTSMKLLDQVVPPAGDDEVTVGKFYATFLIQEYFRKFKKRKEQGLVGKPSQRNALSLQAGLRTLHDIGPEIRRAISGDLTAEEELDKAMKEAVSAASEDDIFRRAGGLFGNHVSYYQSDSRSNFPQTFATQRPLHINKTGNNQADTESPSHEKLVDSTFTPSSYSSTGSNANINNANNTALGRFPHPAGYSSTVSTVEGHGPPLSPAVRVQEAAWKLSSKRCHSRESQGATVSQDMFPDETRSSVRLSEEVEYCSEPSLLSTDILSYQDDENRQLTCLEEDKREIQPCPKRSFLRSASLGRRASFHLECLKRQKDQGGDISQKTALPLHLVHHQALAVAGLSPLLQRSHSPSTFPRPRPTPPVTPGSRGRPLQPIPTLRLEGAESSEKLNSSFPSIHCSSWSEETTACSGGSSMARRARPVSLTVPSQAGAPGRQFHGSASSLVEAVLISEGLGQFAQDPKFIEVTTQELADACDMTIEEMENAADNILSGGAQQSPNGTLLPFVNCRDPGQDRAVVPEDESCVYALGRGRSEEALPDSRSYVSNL
# Sequence of Potassium voltage-gated channel subfamily H member 2 hERG, KCNH2 (h) (Q12809 whole entry): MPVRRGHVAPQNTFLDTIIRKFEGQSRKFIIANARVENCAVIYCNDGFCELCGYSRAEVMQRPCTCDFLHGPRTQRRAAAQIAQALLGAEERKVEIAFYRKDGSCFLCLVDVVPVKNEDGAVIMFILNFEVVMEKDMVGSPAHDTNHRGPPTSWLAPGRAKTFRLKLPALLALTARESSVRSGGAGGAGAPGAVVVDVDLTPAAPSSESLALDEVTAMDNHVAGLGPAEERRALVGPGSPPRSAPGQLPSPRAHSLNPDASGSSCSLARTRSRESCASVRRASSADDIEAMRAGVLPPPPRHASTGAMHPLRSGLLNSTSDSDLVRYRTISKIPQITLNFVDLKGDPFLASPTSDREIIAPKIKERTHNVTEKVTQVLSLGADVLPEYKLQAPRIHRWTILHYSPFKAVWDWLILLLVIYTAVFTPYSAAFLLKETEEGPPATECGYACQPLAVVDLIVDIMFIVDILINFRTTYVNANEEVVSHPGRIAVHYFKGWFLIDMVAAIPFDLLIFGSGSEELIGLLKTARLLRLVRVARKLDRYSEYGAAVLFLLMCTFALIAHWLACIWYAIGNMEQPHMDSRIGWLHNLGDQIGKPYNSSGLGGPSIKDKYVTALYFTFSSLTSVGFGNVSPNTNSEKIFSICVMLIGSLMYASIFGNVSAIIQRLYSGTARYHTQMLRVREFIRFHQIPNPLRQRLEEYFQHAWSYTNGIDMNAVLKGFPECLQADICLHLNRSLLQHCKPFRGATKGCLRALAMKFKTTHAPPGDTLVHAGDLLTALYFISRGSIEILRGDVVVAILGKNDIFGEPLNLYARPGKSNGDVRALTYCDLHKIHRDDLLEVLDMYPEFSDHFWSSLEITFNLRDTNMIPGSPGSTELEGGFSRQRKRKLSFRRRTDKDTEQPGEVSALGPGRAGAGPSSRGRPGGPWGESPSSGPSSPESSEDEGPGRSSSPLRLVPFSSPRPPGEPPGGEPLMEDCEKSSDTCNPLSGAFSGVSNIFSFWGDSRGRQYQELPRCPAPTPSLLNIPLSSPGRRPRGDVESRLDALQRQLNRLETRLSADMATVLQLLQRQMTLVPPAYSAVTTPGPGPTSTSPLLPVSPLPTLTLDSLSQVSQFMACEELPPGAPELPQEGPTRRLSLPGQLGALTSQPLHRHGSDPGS
# T1 sequence (P29274 whole entry): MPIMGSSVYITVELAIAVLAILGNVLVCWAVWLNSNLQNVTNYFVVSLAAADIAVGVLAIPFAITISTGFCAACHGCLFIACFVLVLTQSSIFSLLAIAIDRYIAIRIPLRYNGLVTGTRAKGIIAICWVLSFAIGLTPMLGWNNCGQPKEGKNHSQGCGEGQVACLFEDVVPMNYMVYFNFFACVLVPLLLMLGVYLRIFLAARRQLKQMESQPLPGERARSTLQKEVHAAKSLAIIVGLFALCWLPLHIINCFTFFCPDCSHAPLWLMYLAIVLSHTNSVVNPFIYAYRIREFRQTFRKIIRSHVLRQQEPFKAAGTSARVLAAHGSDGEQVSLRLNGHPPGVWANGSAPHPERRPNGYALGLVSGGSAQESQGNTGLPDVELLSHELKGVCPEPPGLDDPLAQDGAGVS
smiles,measurement,setting,value
"CC(C)Cc1ccc(C(C)C(=O)O)cc1 (centres unmarked) [Ibuprofen, 2-[4-(2-Methylpropyl)phenyl]propanoic acid]",Fup,"[1]; PBK level L2, single value or median, ref [2],[4],[6],[7],[8],[10],[11],[15],[18],[27],[34]",1.3%
same,Fup,"[1]; PBK level L3, single value or median, ref [2],[4],[6],[7],[8],[10],[11],[15],[18],[27],[34]",1.3%
same,"IPP screening %, Specific binding",Tubulin (r),-14.0%
same,Specific binding,"[2]; IPP screening at 100 uM, control α-dendrotoxin",-8.5%
same,pod_httr_bifrost PoD,HepG2 cells [3],7.6781 µM
same,podl_path_minbmd PoD,HepG2 cells [3],30.2909 µM
same,Peff,"[4]; PBK level L2, ref [3],[4],[11]",5.034 cm/s x E-04
same,Peff,"[4]; PBK level L3, ref [4],[11]",5.034 cm/s x E-04
same,pod_cell_stress PoD,HepG2 cells [5],8.518 µM
same,pod_httr_bifrost PoD,HepaRG cells,0.1626 µM
same,podl_path_minbmd PoD,HepaRG cells,8.099 µM
same,risk,"[6]; Dermal, 10%, Gel, Exp3",1
same,risk,"[6]; Oral, High therapeutic, 1200mg/day, Tablet, Exp1",1
same,risk,"[6]; Oral, Low therapeutic, 200mg/day, Tablet, Exp2",1
same,Diffusivity Dermis,[7]; [19],1.00E-06 cm^2/s
same,Diffusivity Stratum Corneum,[7]; [19],1.00E-09 cm^2/s
same,Diffusivity Viable Epidermis,[7]; [19],1.00E-06 cm^2/s
same,Partition Coefficient Stratum Corneum/Water,"[7]; PBK level L2, optimised based on [21] (glutaraldehyde), [23] (HCRed3), [28] (ibuprofen), no reference printed (DEET)",1500.00
same,Partition Coefficient Viable Epidermis/Water,"[7]; PBK level L2, optimised based on [21] (glutaraldehyde), [28] (ibuprofen)",700.00
same,Diffusivity Vehicle,"[7]; PBK level L2, optimised based on [23] (HCRed3), [28] (ibuprofen)",1.00E-05 cm^2/s
same,Partition Coefficient Vehicle/Water,"[7]; PBK level L2, optimised based on [28]",10.00
same,Diffusivity Dermis,[7]; [20],1.00E-06 cm^2/s
same,Diffusivity Stratum Corneum,[7]; [20],1.00E-09 cm^2/s
same,Diffusivity Vehicle,[7]; [20],1.00E-05 cm^2/s
same,Diffusivity Viable Epidermis,[7]; [20],1.00E-06 cm^2/s
same,Partition Coefficient Stratum Corneum/Water,[7]; [20],1500.00
same,Partition Coefficient Vehicle/Water,[7]; [20],10.00
same,Partition Coefficient Viable Epidermis/Water,[7]; [20],700.00
same,Specific binding,[8],7.2%
same,Specific binding,[9],-14.3%
same,Reported AUC0-t,[10]; [21],59.96 µg·h/mL
same,Reported cmax,[10]; [21],39 µg/mL
same,Reported AUC0-t,[10]; [22],117.4 µg·h/mL
same,Reported cmax,[10]; [22],79.75 µg/mL
same,Reported AUC0-t,[10]; [23],187.4 µg·h/mL
same,Reported cmax,[10]; [23],120.2 µg/mL
same,Reported AUC0-t,[10]; [24],128 µg·h/mL
same,Reported cmax,[10]; [24],32.5 µg/mL
same,Reported AUC0-t,[10]; [25],85.59 µg·h/mL
same,Reported cmax,[10]; [25],30.32 µg/mL
same,Reported AUC0-t,[10]; [26],187.4 µg·h/mL
same,Reported cmax,[10]; [26],57.3 µg/mL
same,Reported AUC0-t,[10]; [27],252 µg·h/mL
same,Reported cmax,[10]; [27],41.52 µg/mL
same,Reported AUC0-t,[10]; [28],236.6 µg·h/mL
same,Reported cmax,[10]; [28],60.2 µg/mL
same,Reported AUC0-t,[10]; [29],223 µg·h/mL
same,Reported cmax,[10]; [29],25.22 µg/mL
same,Reported AUC0-t,[10]; [30],279.2 µg·h/mL
same,Reported cmax,[10]; [30],71.1 µg/mL
same,"IPP screening %, Coactivator recruitment",[11],1.0%
same,Specific binding,[12],32.1%
same,Specific binding,[13],5.3%
same,pod_httr_bifrost PoD,MCF7 cells,42.8965 µM
same,podl_path_minbmd PoD,MCF7 cells,150.462 µM
same,PoD (NOAEL),monkey,40 mg/kg bw/day
"CC(=O)CC(c1ccccc1)c1c([O-])c2ccccc2oc1=O.[Na+] (centres unmarked) [Warfarin, Sodium 2-oxo-3-(3-oxo-1-phenylbutyl)-2H-1-benzopyran-4-olate]","IPP screening %, Specific binding",[14],10.1%
same,Fup,"[1]; PBK input, level L2, ref [10]",2%
same,"IPP screening %, Specific binding",Tubulin (r),3.0%
same,Specific binding,[2],7.0%
same,pod_httr_bifrost PoD,HepG2 cells [3],14.2833 µM
same,podl_path_minbmd PoD,HepG2 cells [3],164.109 µM
same,pod_cell_stress PoD,HepG2 cells [5],13.7726 µM
same,HepaRG minimum pathway BMDL,"HepaRG cells; BMDExpress2, highest of the chemical's PoDs",259 µM
same,pod_httr_bifrost PoD,HepaRG cells,13.5544 µM
same,podl_path_minbmd PoD,HepaRG cells,258.74 µM
same,HepaRG BIFROST global PoD,HepaRG cells; lowest of the chemical's PoDs,13.6 µM
same,Intrinsic Liver Clearance,[15],14.41 L/h
same,underprediction of the L3 result at L2 (Cmax),[16],≥ 5 fold
same,Specific binding,[8],7.9%
same,Specific binding,"[9]; IPP screening at 100 uM, control nitrendipine",-1.9%
same,Reported AUC0-t,[10]; [31],54.3 µg·h/mL
same,Reported cmax,[10]; [31],1.305 µg/mL
same,Reported tmax,[10]; [31],1 h
same,Cmax,"[10]; read-out: typical Cmax reported in the literature, human, ref literature, not specified",0.6 to 6 µM
same,"IPP screening %, Coactivator recruitment",[11],-2.0%
same,Specific binding,"[12]; IPP screening at 100 uM, control veratridine",0.7%
same,Specific binding,[13],0.6%
same,Specific binding,[17],-14.2%
same,pod_httr_bifrost PoD,MCF7 cells,19.7041 µM
same,podl_path_minbmd PoD,MCF7 cells,167.012 µM
same,IC50,"[18]; read-out: IC50 on the VKORC1 enzyme, lower end of literature range",24.7 nM
same,IC50,"[18]; read-out: IC50 on the VKORC1 enzyme, upper end of literature range",4000 nM
